The text below walks through data of patent US11129867B2, “Method of treating cancer cells” (priority 2017, dated 2021).

Read-outs that look alike come from different tables or passages of the source. Where no end group is shown, it is not given here.

For data set [1], the system named is Ca922 cells. The data set can be described thus: WST-8 cell viability assay, Ca922. In kind it is cell-based, human. As for the experimental part: (§1) Human oral squamous cell carcinoma (OSCC) cell lines, Ca922, OSC20, OECM-1, OC3, CGHNC9, HSC3, plus A549, MDA-MB-231, MCF7, Huh7, HeLa-Kyoto, Detroit 562, H520, H2170, and 293T cells were used in this study. Ca922, CGHNC9, MDA-MB-231, MCF7, Huh7, HeLa-Kyoto, Detroit 562, and 293T cells were all cultured in high-glucose Dulbecco's Modified Eagle Medium (DMEM). OSC20 and HSC3 cells were cultured in Dulbecco's Modified of Eagle's Medium/Ham's F-12 50/50 Mix (1:1). OECM-1, A549, H520, and H2170 cells were grown in RPMI-1640 medium. All culture media were supplemented with 10% fetal bovine serum (FBS) and 1% penicillin-streptomycin. OC3 cells were cultured in 1:1 DMEM/KSFM (keratinocyte serum-free medium) with supplied supplement of Bovine pituitary extract (BPE) and epidermal growth factor (EGF) followed by instruction. All the cells in this study were maintained at 37° C. in humidified atmosphere containing 5% CO2.
(§2) WST-8 [2-(2-methoxy-4-nitrophenyl)-3-(4-nitrophenyl)-5-(2,4-disulfophenyl)-2H-tetrazolium, monosodium salt] cell viability assay
(§3) Cells were seeded into 96 well plate and incubated at 37° C. overnight. Endpoint measures of TMR-GBP or drugs were performed by water soluble tetrazolium salt (WST-8)-based colorimetric assay in triplicate which measures the metabolic conversion of WST-8 into formazan by mitochondrial dehydrogenases present in viable cells. The amount of formazan produced is proportional to the number of live cells and is expressed as cellular viability. When time was up, media were removed and supplemented with WST-8 cell viability reagent-contained cell culture medium (1:10) and incubated at 37° C. for 2 hours. Besides, three wells with WST-8-dissolved medium only (without cells) were reserved as a background control. Cell viability was measured at the absorbance of 450/655 nm wavelength by ELISA reader.
On the technique in general: Tetrazolium dyes change colour on reduction, which living cells bring about.

Data set [2] relates to Ca922 cells. The data set is described as follows: Annexin V staining with flow cytometry. Conditions: Ca922, 1% H2O2 positive control, FIG. 6A. In kind it is cell-based, human. As for the experimental part:
[…] Diluted 10× Binding Buffer to 1× using distilled water. Washed cells once in PBS, then once in 1× Binding Buffer. Resuspended cells in 1× Binding Buffer at 1-5×10^6/mL. Next, added 5 μL of fluorochrome-conjugated Annexin V to 100 μL of the cell suspension. Sample was incubated 10-15 minutes at room temperature. Afterwards, washed cells in 1× Binding Buffer and resuspend in 200 μL of 1× Binding Buffer. Analyzed by flow cytometry within 4 hours, storing at 2-8° C. in the dark.

Another data set relates to phospho-γH2Ax. The data set is described as follows: Immunofluorescence staining of phospho-γH2Ax (DNA damage). In kind it is cell-based, human. The following applies: Ca922, H2O2 positive control, FIG. 10A. As for the experimental part: Representative images showing DAPI-labelled nucleus (shown in blue) co-stained with phospho-γH2Ax (green). Ca922 cells were treated with 25 μM TMR-GBP for 12 or 24 hours followed by immunofluorescence staining. Foci in the nucleus indicated damaged DNA. Scale bar indicates 10 μm.
At least 20 cells were counted in each category. Bars indicate standard deviations from three independent experiments.
Immunofluorescence Staining
Cells grown on coverslips were washed with 1×PBS and fixed by PTEMF buffer (20 mM PIPES pH 6.8, 0.2% Triton X-100, 10 mM EGTA, 1 mM MgCl2, and 4% formaldehyde) or 4% paraformaldehyde for 10 minutes at room temperature. Then, fixation buffer was replaced with 1×PBST and the cells were washed with 1×PBST for another 10 minutes at room temperature. Coverslips were washed with 1×PBST twice gently and incubated with primary antibodies at room temperature for 1 hour. Next, washed with PBST for three times (2, 2, 5 minutes). Afterwards, coverslips were cultured in Alex Fluor-conjugated secondary antibodies and DAPI at room temperature for 30 minutes, washed three times (2, 2, 5 minutes), rinsed with ddH2O and mounted with mounting medium. Antibodies concentration used in this analysis is 1:1000 dilution. Images were acquired with specific fluorescence wavelength by Leica DMI6000 inverted microscope equipped with HCX PL FL 100λ/NA1.40 objective and EMCCD camera. All images were analyzed by MetaMorph software.

Data set [3] deals with Ca922 cells. The data set is described as follows: Time-lapse live cell imaging, Ca922. In kind it is cell-based. The following applies: Ca922, 12.5 μM, exposed to 532 nm, 488 nm, 405 nm and brightfield, after 20 hours, FIG. 2. As for the experimental part:
Ca922 cells were grown on 35 mm culture dishes overnight then treated with 1% DMSO, 12.5 μM TMR, GBP, TMR-GBP respectively and monitored by time-lapse live cell microscope. Cells were exposed to indicate wavelength once every 4 hours for 100 ms and continuously for 20 hours. At least 300 cells in five different fields were counted for each experiment using microcopy that captured images under 10× magnification. Mortality rate was evaluated by counting the percentage of dead cells in the whole population. Standard deviations of three independent experiments were indicated as bars.
Time-Lapse Live Cell Imaging
In order to monitor cell morphology and the stability of TMR-GBP, cells were incubated in 35 mm dish or 4 well dish at 37° C. overnight. Replaced the culture medium with CO2-independent medium with supplement of 10% fetal bovine serum (FBS) and 1% penicillin-streptomycin, cells were treated with reagent (TMR, GBP, TMR-GBP) for the time according to the experiment and subjected to time-lapse live cell imaging. Cells were maintained on the microscope stage incubator at 37° C. Multiple-positional time-lapse imaging was performed using an automated Leica DMI6000 inverted microscope equipped with an HCX PL FL 20λ/NA0.4 objective and Andor Luca R EMCCD camera. Images of cells were taken at different interval time and analyzed by MetaMorph software.

The next data set relates to Detroit 562. The data set is described as follows: WST-8 cell viability assay, Detroit 562. In kind it is cell-based. As for the experimental part:
as §1, §2, §3

The subject of the next data set is H520. The data set is described as follows: WST-8 cell viability assay, H520. In kind it is cell-based. As for the experimental part:
as §1, §2, §3

Another data set relates to H2170. The data set can be described thus: WST-8 cell viability assay, H2170. In kind it is cell-based. The protocol: as §1, §2, §3

For the molecule `O=C(O)CN(CCOCCOCCN(CC(=O)O)CC(=O)O)CC(=O)O` [EGTA, ethylene glycol tetraacetic acid, reference compound], the “effect on cell viability” value in the data set on Ca922 cells [1] (Ca922, 1 mM EGTA, 50 hours, FIG. 8A) is listed as “no significant effect on cell viability”.

For `OO` [H2O2, reference compound], in the data set on Ca922 cells [2], the “apoptosis by Annexin-V-FITC labeling” value was “induces apoptosis in Ca922”. Further, the “phospho-γH2Ax foci in the nucleus (DNA damage)” value with phospho-γH2Ax was “many foci were observed accumulating in the nucleus”.

As for `CN(C)c1ccc2c(-c3ccccc3C(=O)[O-])c3ccc(N(C)C)cc3[o+]c2c1` [TMR, Tetramethylrhodamine, reference compound], the “cytotoxicity under light stress (mortality)” value in the data set with Ca922 cells [3] was “more sensitive to 532 nm light stress and displayed cytotoxic effects”. Moreover, the “cytotoxicity (cell viability)” value in the data set on Ca922 cells [1] (Ca922 (oral cancer), different concentrations, 48 hours, FIG. 5) is “neither TMR-GBPR3QW4R nor TMR alone induce cytotoxicity”; in the data set with Detroit 562 (Detroit 562 (pharynx cancer), different concentrations, 48 hours, FIG. 5), “neither TMR-GBPR3QW4R nor TMR alone induce cytotoxicity”; in the data set with H520 (H520 (lung cancer), different concentrations, 48 hours, FIG. 5), “neither TMR-GBPR3QW4R nor TMR alone induce cytotoxicity”; in the data set on H2170 (H2170 (lung cancer), different concentrations, 48 hours, FIG. 5), “neither TMR-GBPR3QW4R nor TMR alone induce cytotoxicity”.

For “TMR-GBPR3QW4R: TMR conjugate of peptide GBPR3QW4R, NYQRRCKNQN (SEQ ID NO. 4) (not fully specified (N-terminus); also: TMR conjugate, site not given here; listed as Homo sapiens)”, the “cytotoxicity (cell viability)” value in the data set on Ca922 cells [1], in the data set on Detroit 562, in the data set on H520 and with H2170 was “neither TMR-GBPR3QW4R nor TMR alone induce cytotoxicity” each time.

With “TMR-GBPW4R: TMR conjugate of peptide GBPW4R, NYRRRCKNQN (SEQ ID NO. 3) (not fully specified (N-terminus); also: TMR conjugate, site not given here; listed as Homo sapiens)”, the “cytotoxicity (cell viability)” value in the data set with Detroit 562, in the data set with H520 and with H2170 was “could induce cytotoxicity” in each case.
